# Assays:
# [1] = tested on: Sprague-Dawley female rats subjected to ovariectomy (OVX); experiment: Effect of increasing bone density in ovariectomized rats (dual X-ray bone densitometry); type: in vivo, rat; conditions: forcibly orally, five times per week, pathological control group (vehicle) = 100%
# Protocol: The compound of the present invention was adjusted to each concentration using middle chain triglyceride (MCT) as a base. The adjusted solution was stored under shading at 4° C. until use.
# Seven-week-old Sprague-Dawley (Crj:CD(SD)) female rats (Charles River Laboratories Japan, Inc.) were preliminarily bred for one week in an environment at a room temperature of 20 to 26° C., at a humidity of 35 to 75% and with an air change of 10 times or more per hour. The rats were allowed to freely take tap water and CE-2 (CLEA Japan, Inc.) as a feed.
# After preliminary breeding, the animals were subjected to ovariectomy (OVX) and divided into groups (eight animals per group) on the day after the operation. Only MCT as a base was forcibly orally administered to the sham operation group (sham) and the pathological control group (OVX-vehicle) at a dose of 1 mL/kg (five times per week). The compound of the present invention was also forcibly orally administered at the same dose five times per week.
# The animals were bred in a metabolic cage and urine was collected for 24 hours after the final administration. Blood was collected from the abdominal aorta under ether anesthesia for 24 hours after the final administration. The blood was allowed to stand at room temperature for 30 minutes and then centrifuged to provide serum. The femur and lumbar spine were collected and stored in 70% ethanol until bone density measurement.
# The bone density of the femur and the second to fifth lumbar spines of the isolated lumbar spines was measured by the dual X-ray bone densitometry system DCS-600-EX (ALOKA). The distal femur bone density was measured for three […] regions out of 10 regions of the femur equally divided in length. The bone density in each site was described based on the bone density of the pathological control group (vehicle group) in each experiment as 100%.
# The effects of the compounds of the present invention on the lumbar spine bone density are shown in Table 2 as an example of the obtained results.
# [2] = tested on: osteocalcin production in MG-63 cells; experiment: Osteocalcin production in MG-63 cells (Gla-type Osteocalcin EIA); type: cell-based, human; conditions: (EC50 value of 1,25(OH)2D3/EC50 value of each compound)×100; eight hours exposure, then four days culture
# Protocol: mg-63 was obtained from Institute for Fermentation, Osaka as a human osteoblast-like cell line. MG-63 cells were maintained and cultured in a MEM medium (Minimum essential medium; pH 7.0; Invitrogen Corporation, Carlsbad, Calif., USA) containing 5% fetal bovine serum (FBS; HyClone, Logan, Utah, USA).
# MG-63 cells were adjusted to a density of 4.0×10^4 cells/mL, plated in a 96-well plate at 200 μL per well, and cultured under conditions of 37° C. and 5% carbon dioxide for 24 hours.
# After removing the medium, MEM containing 5% charcoal/dextran treated FBS (DCC-FBS; Hyclone, Logan, Utah, USA) was added at 180 μL/well. The test substance (1.0×10^−3 mol/L) was diluted with dimethyl sulfoxide (DMSO) to 1.0×10^−4 mol/L, 1.0×10^−5 mol/L, 1.0×10^−6 mol/L, 1.0×10^−7 mol/L and 1.0×10^−8 mol/L. 1,25(OH)2D3 was used as a positive control. Like the test substance, 1,25(OH)2D3 was diluted with DMSO. 0.02 mL of the positive control and the test substance diluted 100-fold with MEM containing 5% DCC-FCS was added to each well of the 96-well plate, so that the final drug concentration was 1.0×10^−6 mol/L to 1.0×10^−11 mol/L. Thereafter, the cells were cultured under conditions of 37° C. and 5% carbon dioxide for eight hours.
# After culturing for eight hours, the medium was removed, and MEM containing 5% DCC-FBS was added at 0.2 mL per well. The cells were cultured under conditions of 37° C. and 5% carbon dioxide for four days, and the medium was recovered. The medium was stored at −80° C. until osteocalcin measurement.
# The Gla-type Osteocalcin EIA kit (Takara Bio Inc., Tokyo, Japan) was used for measurement of osteocalcin. Measurement was carried out using a microplate reader (Model 3550, Bio-Rad Laboratories, Inc., Hercules, Calif., USA) at a wavelength of 450 nm, and the results were analyzed by Microplate Manager III (Bio-Rad Laboratories, Inc., ver. 1.57).
# The median effective concentration (EC50) was calculated from the osteocalcin concentration. Potency of induction of each compound was calculated as a ratio of EC50 of 1,25(OH)2D3 to EC50 of the compound. The relation between diseases and induction of osteocalcin production is described in Lancet (1984 May 19), 1 (8386), 1091-3; Steroids 66, 159-170 (2001); and Journal of Steroid Biochemistry & Molecular Biology 89-90, 269-271 (2004), for example.
# The osteocalcin production level in MG-63 cells (%) was calculated by the formula: (EC50 value of 1,25(OH)2D3/EC50 value of each compound)×100.
SMILES,Osteocalcin production level in MG-63 cells (%) [2] [%],further results
"CCC(CC)(c1ccc(/C=C/C2(O)CCCCC2)c(C)c1)c1ccc(-c2cc(Cl)ccc2CC(=O)O)c(C)c1 [Example 89, [5-chloro-4′-(1-ethyl-1-{4-[(E)-2-(1-hydroxy-cyclohexyl)-vinyl]-3-methyl-phenyl}-propyl)-2′-methyl-biphenyl-2-yl]-acetic Acid]",,Lumbar spine bone density (%) ([1]; 1.25 μg/kg): 109.24%; Lumbar spine bone density (%) ([1]; 2.5 μg/kg): 121.37%
"CCC(CC)(c1ccc(/C=C/C(O)(C(F)(F)F)C(F)(F)F)c(C)c1)c1ccc(-c2nc(CC(=O)O)cs2)c(C)c1 [Example 76, [2-(4-{1-ethyl-1-[3-methyl-4-((E)-4,4,4-trifluoro-3-hydroxy-3-trifluoromethyl-1-butenyl)-phenyl]-propyl}-2-methyl-phenyl)-thiazol-4-yl]-acetic Acid]",407,Lumbar spine bone density (%) ([1]; 0.015 μg/kg): 110.22%; Lumbar spine bone density (%) ([1]; 0.03 μg/kg): 111.00%
"CCC(CC)(c1ccc(C#CC(O)(C(F)(F)F)C(F)(F)F)c(C)c1)c1ccc(-c2cncc(CC(=O)O)c2)c(C)c1 [Example 80, [5-(4-{1-ethyl-1-[3-methyl-4-(4,4,4-trifluoro-3-hydroxy-3-trifluoromethyl-1-butynyl)-phenyl]-propyl}-2-methyl-phenyl)-pyridin-3-yl]-acetic Acid]",,Lumbar spine bone density (%) ([1]; 0.05 μg/kg): 110.75%; Lumbar spine bone density (%) ([1]; 0.1 μg/kg): 116.68%
"CCC(CC)(c1ccc(-c2cncc(CC(=O)O)c2)cc1)c1ccc(CCC2(O)CCCCC2)c(C)c1 [Example 149, {5-[4-(1-ethyl-1-{4-[2-(1-hydroxy-cyclohexyl)-ethyl]-3-methyl-phenyl}-propyl)-phenyl]-pyridin-3-yl}-acetic Acid]",1305,Lumbar spine bone density (%) ([1]; 0.075 μg/kg): 111.40%; Lumbar spine bone density (%) ([1]; 0.15 μg/kg): 116.00%
"CCC(CC)(c1ccc(C#CC(O)(C(F)(F)F)C(F)(F)F)c(C)c1)c1ccc(-c2ccc(CC(=O)O)c(F)c2)c(C)c1 [Example 78, (4′-{1-ethyl-1-[3-methyl-4-(4,4,4-trifluoro-3-hydroxy-3-trifluoromethyl-1-butynyl)-phenyl]-propyl}-3-fluoro-2′-methyl-biphenyl-4-yl)-acetic Acid]",617,
"CCC(O)(/C=C/c1ccc(C(CC)(CC)c2ccc(-c3ccc(CC(=O)[O-])c(F)c3)c(C)c2)cc1C)CC.[Na+] [Example 48, Sodium (4′-{1-ethyl-1-[4-((E)-3-ethyl-3-hydroxy-1-pentenyl)-3-methyl-phenyl]-propyl}-3-fluoro-2′-methyl-biphenyl-4-yl)-acetate]",508,
"CCC(CC)(c1ccc(-c2cncc(CC(=O)O)c2)cc1)c1ccc(OCC(O)C(C)(C)C)c(C)c1 (centres unmarked) [Example 146, [5-(4-{1-ethyl-1-[4-(2-hydroxy-3,3-dimethyl-butoxy)-3-methyl-phenyl]-propyl}-phenyl)-pyridin-3-yl]-acetic Acid]",3721,
"CCC(CC)(c1ccc(OCC(O)C(C)(C)C)c(C)c1)c1ccc(-c2ccc(CC(=O)O)cn2)c(C)c1 (centres unmarked) [Example 101, [6-(4-{1-ethyl-1-[4-(2-hydroxy-3,3-dimethyl-butoxy)-3-methyl-phenyl]-propyl}-2-methyl-phenyl)-pyridin-3-yl]-acetic Acid]",508,
"CCC(CC)(c1ccc(/C=C/C2(O)CCCCC2)c(C)c1)c1ccc(-c2ccc(CC(=O)O)cn2)c(C)c1 [Example 91, {6-[4-(1-ethyl-1-{4-[(E)-2-(1-hydroxy-cyclohexyl)-vinyl]-3-methyl-phenyl}-propyl)-2-methyl-phenyl]-pyridin-3-yl}-acetic Acid]",1074,
"CCC(CC)(c1ccc(C#CC(O)(C(F)(F)F)C(F)(F)F)c(C)c1)c1ccc(-c2ccc(CC(=O)O)cc2)c(C)c1 [Example 45, (4′-{1-ethyl-1-[3-methyl-4-(4,4,4-trifluoro-3-hydroxy-3-trifluoromethyl-1-butynyl)-phenyl]-propyl}-2′-methyl-biphenyl-4-yl)-acetic Acid]",546,
"CCC(CC)(c1ccc(/C=C/C(O)(C(F)(F)F)C(F)(F)F)c(C)c1)c1ccc(-c2cncc(CC(=O)O)c2)c(C)c1 [Example 75, [5-(4-{1-ethyl-1-[3-methyl-4-((E)-4,4,4-trifluoro-3-hydroxy-3-trifluoromethyl-1-butenyl)-phenyl]-propyl}-2-methyl-phenyl)-pyridin-3-yl]-acetic Acid]",1283,
"CCC(CC)(c1ccc(OCC(O)C(C)(C)C)c(C)c1)c1ccc(-c2ccc(CC(=O)O)c(F)c2)c(C)c1 (centres unmarked) [Example 100, (4′-{1-ethyl-1-[4-(2-hydroxy-3,3-dimethyl-butoxy)-3-methyl-phenyl]-propyl}-3-fluoro-2′-methyl-biphenyl-4-yl)-acetic Acid]",878,
"CCC(CC)(c1ccc(/C=C/C(O)(C(F)(F)F)C(F)(F)F)c(C)c1)c1ccc(-c2cccc(CC(=O)O)c2)c(C)c1 [Example 71, (4′-{1-ethyl-1-[3-methyl-4-((E)-4,4,4-trifluoro-3-hydroxy-3-trifluoromethyl-1-butenyl)-phenyl]-propyl}-2′-methyl-biphenyl-3-yl)-acetic Acid]",746,Lumbar spine bone density (%) ([1]; 0.025 μg/kg): 110.58%; Lumbar spine bone density (%) ([1]; 0.05 μg/kg): 115.09%
"CCC(CC)(c1ccc(-c2cncc(CC(=O)O)c2)cc1)c1ccc(C#CC2(O)CCCC2)c(C)c1 [Example 148, [5-(4-{1-ethyl-1-[4-(1-hydroxy-cyclopentylethynyl)-3-methyl-phenyl]-propyl}-phenyl)-pyridin-3-yl]-acetic Acid]",1022,
"CCC(CC)(c1ccc(/C=C/C(O)(C(F)(F)F)C(F)(F)F)c(C)c1)c1ccc(-c2ccc(CC(=O)O)cc2)c(C)c1 [Example 46, (4′-{1-ethyl-1-[3-methyl-4-((E)-4,4,4-trifluoro-3-hydroxy-3-trifluoromethyl-1-butenyl)-phenyl]-propyl}-2′-methyl-biphenyl-4-yl)-acetic Acid]",2233,
"CCC(O)(/C=C/c1ccc(C(CC)(CC)c2ccc(-c3ccc(CC(=O)O)cn3)c(C)c2)cc1C)CC [Example 81, [6-(4-{1-ethyl-1-[4-((E)-3-ethyl-3-hydroxy-1-pentenyl)-3-methyl-phenyl]-propyl}-2-methyl-phenyl)-pyridin-3-yl]-acetic Acid]",652,Lumbar spine bone density (%) ([1]; 0.01 μg/kg): 115.66%; Lumbar spine bone density (%) ([1]; 0.02 μg/kg): 115.66%
